Results taken from patent publication US12168781B2, “Production method for T cells or NK cells, medium for culturing T cells or NK cells, method for culturing T cells or NK cells, method for maintaining undifferentiated state of undifferentiated T cells, and growth-accelerating agent for T cells or NK cells” (KIRIN HOLDINGS KABUSHIKI KAISHA, priority 2018, dated 2024).
Marks after values point to notes of the source that are not given here.

Tested on: T-iPS-T cells
Experiment: Number of viable T-iPS-T cells under feeder-free culture (CD3/CD28 Dynabeads, Cell Count Reagent SF, absorbance 450 nm/650 nm)
Type: cell-based, human
Details: T-iPS-T cells after 1st expansion, 6 days, DMSO control 0.225 ± 0.017
Procedure: T-iPS-T cells (1,500 cells/well) after 1st expansion were seeded and cultured in RPMI-1640 medium (SIGMA, R8758) supplemented with 15% FBS (CORNING, 35-076-CV, 35076104R), 1% PSG (SIGMA, G1146), PAA (50 μg/mL, Nacalai Tesque, 03420-52), ITS-G, IL-7 (5 ng/mL), IL-12 (50 ng/mL), IL-15 (5 ng/mL), IL-18 (50 ng/mL), IL-21 (20 ng/mL), and z-VAD-fmk (10 μM). The cells were stimulated by adding CD3/CD28 Dynabeads (Gibco, 11131D, the “Dynabeads” is a registered trademark) (4,500 beads/well) thereto, and 1,080 compounds [MedChemExpress, Apoptosis Compound Library (HY-L003), Cell Cycle/DNA Damage Compound Library (HY-L004), JAK/STAT Compound Library (HY-L008), MAPK Compound Library (HY-L010), NF-kappaB Compound Library (HY-L014), PI3K/Akt/mTOR Compound Library (HY-L015), and Wnt/Hedgehog/Notch Compound Library (HY-L020)] were added thereto (one type per well) at a final concentration of 1 μM, and then, the cells were cultured at 37° C. under 5% CO2.
DMSO (0.1%) that is a solvent for the compound was used as a control. After 6 days, the number of viable cells was measured using Cell Count Reagent SF (Nacalai Tesque, 07553) and a microplate reader (SoftMax Pro 5.X, Molecular Devices, 450 nm/650 nm).
A calibration curve for cell number was set as follows. When measuring the number of viable cells, 12-point serial dilution was performed for the same cells as those used in the screening, and the cells were seeded (0 to 1,536,000 cells/well) in RPMI-1640 medium supplemented with 15% FBS, 1% PSG, PAA, ITS-G, IL-7 (5 ng/mL) and IL-15 (5 ng/mL). The number of viable cells was measured together with the screening samples, and a calibration curve for WST-8 assay was formed.
In order to further evaluate the results obtained in Example 4, reproducibility was evaluated. As a method therefor, the same method as in Example 4 was used to carry out culturing and evaluation. As compounds, 20 compounds were selected and used among the compounds used in Example 4 including berbamine, and DMSO (0.1%) that is a solvent for the compound was used as a control. Note that in a statistical analysis, a Student's t-test was used (*: p<0.05).
The effect of a berbamine derivative on the proliferation of T cells was verified. As a method therefor, T-iPS-T cells after 1st expansion were cultured in the same manner as in Example 4, and berbamine (BBM) or each of 13 types of derivatives [BBMD1 to 13, Hebei Sundia MediTech Company Ltd.] was added thereto (one type per well) at a final concentration of 0.1 nM, 1 nM, 10 nM, 100 nM, or 1 μM, and then, the cells were cultured at 37° C. under 5% CO2. DMSO (0.1%) that is a solvent for the compound was used as a control.
After culturing for 6 days, the number of viable cells was measured using Cell Count Reagent SF (Nacalai Tesque, 07553) and a microplate reader (SoftMax Pro 5. X, Molecular Devices, 450 nm/650 nm), and the OD value was used as data. Note that in a statistical analysis, a Student's t-test was used (*: p<0.05). 1.

SMILES | number of viable cells (OD value) (0.1 nM) | number of viable cells (OD value) (1 nM) | number of viable cells (OD value) (10 nM) | number of viable cells (OD value) (100 nM) | number of viable cells (OD value) (1 μM)
COc1cc2c3cc1Oc1c(OC)c(OC)cc4c1C(Cc1ccc(OS(=O)(=O)c5ccccc5)c(c1)Oc1ccc(cc1)CC3N(C)CC2)N(C)CC4 (stereo not shown) [BBMD1] | 0.257 ± 0.024 | 0.268 ± 0.009 * | 0.289 ± 0.033 * | 0.415 ± 0.039 ** | 0.529 ± 0.101 **
COc1cc2c3cc1Oc1c(OC)c(OC)cc4c1C(Cc1ccc(CCCCBr)c(c1)Oc1ccc(cc1)CC3N(C)CC2)N(C)CC4 (stereo not shown) [BBMD2] | – | 0.269 ± 0.059 | 0.295 ± 0.028 * | 0.437 ± 0.059 ** | 0.493 ± 0.036 ***
COc1cc2c3cc1Oc1c(OC)c(OC)cc4c1C(Cc1ccc(OCc5ccc([N+](=O)[O-])cc5)c(c1)Oc1ccc(cc1)CC3N(C)CC2)N(C)CC4 (stereo not shown) [BBMD3] | 0.245 ± 0.013 | 0.298 ± 0.021 * | 0.325 ± 0.077^ | 0.581 ± 0.025 **** | 0.195 ± 0.002
COc1cc2c3cc1Oc1c(OC)c(OC)cc4c1C(Cc1ccc(OC(=O)C(C)(C)C)c(c1)Oc1ccc(cc1)CC3N(C)CC2)N(C)CC4 (stereo not shown) [BBMD4] | 0.234 ± 0.024 | 0.245 ± 0.037 | 0.286 ± 0.019 * | 0.470 ± 0.023 *** | 0.470 ± 0.053 **
COc1cc2c3cc1Oc1c(OC)c(OC)cc4c1C(Cc1ccc(OC(=O)c5cc6ccccc6[nH]5)c(c1)Oc1ccc(cc1)CC3N(C)CC2)N(C)CC4 (stereo not shown) [BBMD5] | 0.246 ± 0.001 | 0.245 ± 0.016 | 0.285 ± 0.032 * | 0.477 ± 0.064 ** | 0.186 ± 0.001
COc1cc2c3cc1Oc1c(OC)c(OC)cc4c1C(Cc1ccc(OC(=O)c5ccc(Br)cc5)c(c1)Oc1ccc(cc1)CC3N(C)CC2)N(C)CC4 (stereo not shown) [BBMD6] | 0.248 ± 0.019 | 0.248 ± 0.016 | 0.290 ± 0.023 * | 0.472 ± 0.077 ** | 0.208 ± 0.004
COc1cc2c3cc1Oc1c(OC)c(OC)cc4c1C(Cc1ccc(CCCCN5CCCC5)c(c1)Oc1ccc(cc1)CC3N(C)CC2)N(C)CC4 (stereo not shown) [BBMD7] | 0.230 ± 0.018 | 0.266 ± 0.013 * | 0.258 ± 0.024^ | 0.346 ± 0.041 ** | 0.550 ± 0.026 ****
COc1cc2c3cc1Oc1c(OC)c(OC)cc4c1C(Cc1ccc(OC(=O)CCNC(=O)OC(C)(C)C)c(c1)Oc1ccc(cc1)CC3N(C)CC2)N(C)CC4 (stereo not shown) [BBMD8] | 0.268 ± 0.022 * | 0.227 ± 0.028 | 0.261 ± 0.029^ | 0.326 ± 0.051 * | 0.462 ± 0.027 ***
COc1cc2c3cc1Oc1c(OC)c(OC)cc4c1C(Cc1ccc(OCCCN)c(c1)Oc1ccc(cc1)CC3N(C)CC2)N(C)CC4 (stereo not shown) [BBMD9] | 0.264 ± 0.030 | 0.255 ± 0.004 * | 0.221 ± 0.017^ | 0.268 ± 0.020 * | 0.328 ± 0.016**
COc1ccc(C(=O)NCCCOc2ccc3cc2Oc2ccc(cc2)CC2c4cc(c(OC)cc4CCN2C)Oc2c(OC)c(OC)cc4c2C(C3)N(C)CC4)cc1 (stereo not shown) [BBMD10] | 0.255 ± 0.013 | 0.274 ± 0.007 ** | 0.295 ± 0.023 * | 0.494 ± 0.038 *** | 0.301 ± 0.008 **
COc1cc2c3cc1Oc1c(OC)c(OC)cc4c1C(Cc1ccc(OCCCNC(=O)c5ccc(-c6ccc(C=O)cc6)cc5)c(c1)Oc1ccc(cc1)CC3N(C)CC2)N(C)CC4 (stereo not shown) [BBMD11] | 0.270 ± 0.099 | 0.242 ± 0.046 | 0.300 ± 0.081^ | 0.425 ± 0.079 * | 0.239 ± 0.076
COc1cc2c3cc1Oc1c(OC)c(OC)cc4c1C(Cc1ccc(OCCCNC(=O)c5cscn5)c(c1)Oc1ccc(cc1)CC3N(C)CC2)N(C)CC4 (stereo not shown) [BBMD12] | 0.185 ± 0.072 | 0.234 ± 0.027 | 0.235 ± 0.010^ | 0.257 ± 0.008 * | 0.561 ± 0.035 ***
COc1cc2c3cc1Oc1c(OC)c(OC)cc4c1C(Cc1ccc(OC(=O)c5ccccc5)c(c1)Oc1ccc(cc1)CC3N(C)CC2)N(C)CC4 (stereo not shown) [BBMD13] | 0.253 ± 0.022 | 0.292 ± 0.001 ** | 0.260 ± 0.011 * | 0.412 ± 0.085 * | 0.288 ± 0.041
